Marks after values point to notes of the source that are not given here.
Experiments:
Assay type in all cases: in vivo, human
[1] = system: healthy middle-aged men and women; assay: Hangover cure and rehabilitation effect after excessive drinking of liquor (self-rated discomfort level); conditions: 1 cysteine tablet (1200 mg L-cysteine) before dinner
Procedure: (§1) Thirty-six healthy middle-aged men and women were chosen and divided into four groups, namely, the control group, the cysteine group, the 5 g oligopeptide nutrition group (prepared in Example 3) and the 10 g oligopeptide nutrition group (prepared in Example 3). Ten to twenty minutes before dinner (at time 18:00), 150 mL of plain boiled water at a temperature of 35° C. was prepared for each person in advance. In the control group, the subjects only drank plain boiled water; in the cysteine group, the subjects took 1 cysteine tablet (each comprising 1200 mg L-cysteine, produced by U.S. Now Food) when drinking water; in the 5 g oligopeptide nutritional group, the subjects put 5 g of the oligopeptide nutritional powder into a cup, poured 150 mL of plain boiled water, stirred to dissolve and drink; in the 10 g oligopeptide nutritional group, the subjects put 10 g of the oligopeptide nutritional powder into a cup, poured 150 mL of plain boiled water, stirred to dissolve and drink.
Dinners started at 18:00 and ended at 20:00. Each of 36 subjects drank 200 mL of liquor (Kweichow Moutai Liquor 2018, 53% vol. 106 PROOF) within two hours. […] All subjects' forms were collected, and the subjects' conditions were recorded and analyzed by classification.

[2] = system: healthy middle-aged men and women; assay: Hangover cure and rehabilitation effect after excessive drinking of red wine (self-rated discomfort level); conditions: 1 cysteine tablet (1200 mg L-cysteine) before dinner
Procedure: as §1, with “3), and they experienced the hangover cure and rehabilitation effect of the oligopeptide nutritional powder for excessive drinking of red wine.” for “3).”, “dinner,” for “dinner (at time 18:00),”, “person.” for “person in advance.”
Dinners started at 18:00 and ended at 20:00. Each of 36 subjects drank 400 mL of red wine (France Saint Arnaud Cabernet Sauvignon 2015, 13.5% vol. Cabernet Sauvignon). […] All subjects' forms were collected, and the subjects' conditions were recorded and analyzed by classification.

[3] = system: healthy middle-aged men and women; assay: Summary of hangover cure and rehabilitation effects on excessive drinking of liquor and red wine; conditions: liquor and red wine summarised, 1200 mg cysteine
Procedure: as §1
Dinners started at 18:00 and ended at 20:00. Each of 36 subjects drank 200 mL of liquor (Kweichow Moutai Liquor 2018, 53% vol. 106 PROOF) within two hours. The subjects' dinners were mainly Chinese stir-fried dishes, including fish, meat and vegetables, with rice as the staple food, and the dinners lasted two hours. In the next morning at 8:00 (12 hours after drinking) and in the third morning at 8:00 (36 hours after drinking), the subjects filled in the forms, indicating personal feelings. The personal feelings included 5 levels, namely, level 0 indicated no discomfort, level 1 indicated slight tiredness, level 2 indicated feeling of dizziness, level 3 indicated headache, level 4 indicated nausea or vomiting, requiring stay in bed. All subjects' forms were collected, and the subjects' conditions were recorded and analyzed by classification.
Thirty-six healthy middle-aged men and women were chosen and divided into four groups, namely, the control group, the cysteine group, the 5 g oligopeptide nutrition group (prepared in Example 3) and the 10 g oligopeptide nutrition group (prepared in Example 3), and they experienced the hangover cure and rehabilitation effect of the oligopeptide nutritional powder for excessive drinking of red wine. Ten to twenty minutes before dinner, 150 mL of plain boiled water at a temperature of 35° C. was prepared for each person. […]
Dinners started at 18:00 and ended at 20:00. […] All subjects' forms were collected, and the subjects' conditions were recorded and analyzed by classification.

[4] = Effect on blood alcohol content after drinking liquor or red wine (breath alcohol tester)
Procedure: Thirty healthy middle-aged men and women were chosen and divided into three groups, namely, the control group, the cysteine group and the 10 g oligopeptide nutrition group. After drinking liquor and red wine, the effects of the oligopeptide nutritional powder on the blood alcohol contents were compared. Ten to twenty minutes before dinner, 150 mL of plain boiled water at a temperature of 35° C. was prepared for each person. In the control group, the subjects only drank plain boiled water; in the cysteine group, the subjects took 1 cysteine tablet (each comprising 1200 mg L-cysteine, produced by U.S. Now Food) when drinking water; in the 10 g oligopeptide nutritional group, the subjects put 10 g of the oligopeptide nutritional powder into a cup, poured 150 mL of plain boiled water, stirred to dissolve and drink.
Dinners started at 18:00 and ended at 20:00. Each of 30 subjects drank 200 mL of liquor (Kweichow Moutai Liquor 2018, 53% vol. 106 PROOF) or 400 mL of red wine (France Saint Arnaud Cabernet Sauvignon 2015, 13.5% vol. Cabernet Sauvignon) within two hours. The subjects' dinners were mainly Chinese stir-fried dishes, including fish, meat and vegetables, with rice as the staple food, and the dinners lasted two hours. Every 30 minutes after the start of drinking, the breath alcohol tester (Mr. Black-03) was used to test the blood alcohol content of each subject for four hours, then test once every two hours; on the 16th hour after drinking, the test was over. The data of the subjects were recorded separately, and the statistical analysis of data was performed by groups. The blood alcohol metabolism curve of each group was completed by Gaussian Fitting method. For oligopeptide nutritional powder, after 4 hours of excessive drinking of liquor and red wine, namely, 2 hours after the end of meals, the blood alcohol content was measured, as shown in Table 3.

N[C@@H](CS)C(=O)O [cysteine tablets, L-cysteine]
subjects with obvious discomfort (>2 degree of discomfort) ([1]; 12 hours after drinking 200 mL liquor): 44.4%
subjects with obvious discomfort ([1]; 36 hours after drinking 200 mL liquor): 22.2%
subjects with obvious discomfort (>2 degree of discomfort) ([2]; 12 hours after drinking 400 mL red wine): 44.4%
subjects with obvious discomfort ([2]; 36 hours after drinking 400 mL red wine): 22.2%
Proportion of > degree 2 discomfort 12 hours after drinking wine [3]: 44.4%
Proportion of > degree 2 discomfort 12 hours after drinking wine ([3]; listed as Cysteine): 44.4%^b
Proportion of > degree 2 discomfort 36 hours after drinking wine ([3]; listed as Cysteine): 22.2%^a
Proportion of > degree 2 discomfort 36 hours after drinking wine ([3]; listed as cysteine): 22.2%
Blood alcohol content 4 hours after drinking liquor ([4]; 200 mL liquor, 1200 mg cysteine before dinner, breath alcohol tester): 42.3 ± 3.1^b mg/100 mL
Blood alcohol content 4 hours after drinking red wine ([4]; 400 mL red wine, 1200 mg cysteine before dinner, breath alcohol tester): 38.7 ± 6.8^ab mg/100 mL
blood alcohol content versus alcohol content threshold for drunk driving ([4]; within 4 hours of drinking liquor or red wine, cysteine group (1200 mg)): > 20 mg/100 mL
